Data: patent US9808434B2, “Compound for treating cancer and diabetes” (CITY OF HOPE, priority 2011, dated 2017)
Blank lines part the entries; values can stand above or below the molecule they belong to.

Tests used:
[1] = tested on: human melanoma cells (SK-MEL28, A2058, A101D); assay: Oxygen consumption rate in melanoma cells, Seahorse; assay type: cell-based; details: 1-10 μM, monitored 2 h
Method: (§1) Oxygen consumption rate (OCR), a measure of OxPhos, and extracellular acidification rate (ECAR), a measure of lactate production by glycolysis, were measured using a Seahorse Xf^e96 Flux Analyzers (Seahorse Biosciences, North Billerica, Mass.). Cells were seeded in DMEM media in Seahorse 96-well tissue culture plates at a density of 5×10^3 cells/well and allowed to adhere for 24 h. Prior to the assay, the media was changed to unbuffered DMEM containing 25 mM glucose, 1 mM pyruvate and 1 mM glutamine, with 0.2% fatty acid/endotoxin-free BSA (w/v) (pH 7.4) and the cells were equilibrated for 30 min at 37° C. Test compounds were injected during the assay and OCR and ECAR were measured using 2-3 min measurement periods. […] OCR was measured throughout the different injections of the stressors and test compounds (indicated by arrows in the figures).
The importance of mitochondria as oxygen sensors as well as producers of ATP and ROS has recently become a focal point of cancer research. […] OCR was continuously monitored for 2 h. Mitochondria recoupler 6-KCH (200 μM) was added to the assay system prior to injection of COH-SR4 (5 μM) as shown by arrows and OCR of A101D cells were monitored (FIG. 37B). […]

[2] = tested on: isolated mouse liver mitochondria; assay: Oxygen consumption rate in isolated liver mitochondria; details: increasing concentrations
Method: Mitochondria were isolated from the livers of 10 week old male C57BL/6 mice. Mice were euthanized by CO2 inhalation followed by cervical dislocation. Livers were removed, minced with scissors, and immediately placed in ˜10 volumes of ice-cold mitochondria isolation medium (250 mM sucrose, 10 mM Tris-HCl, 1 mM EGTA, 1% fatty acid/endotoxin-free BSA, pH 7.4). The presence of BSA in the medium allowed the endogenous free fatty acids to be chelated from the homogenate suspension. The tissues were homogenized using 25-30 strokes in Potter-Elvehjem tissue grinder. Following centrifugation at 800×g for 10 min at 4° C., the fats/lipids were carefully aspirated, and the remaining supernatant was filtered through sterile 0.40 micron nylon mesh membrane and centrifuged at 8,000×g for 10 min at 4° C. […] The mitochondrial protein concentration was determined by the DC Protein Assay kit (Bio-Rad, Hercules, Calif.) with BSA as a standard. […]
Isolated mouse liver mitochondria (2 μg/well or 5 μg/well) were seeded on Seahorse 96-well plate, and respiration (OCR) was measured on mitochondria respiring either on pyruvate (10 mM) and malate (2 mM) or succinate (10 mM) and rotenone (2 μM) using a Seahorse 96 Flux Analyzers according to Rogers et al (90).

A2058 cells = assay: Mitochondrial membrane depolarization, TMRE; assay type: cell-based, human; details: 5 μM
Method: Cells (4×10^5/well in 6-well plates) cultured overnight were pre-incubated with the fluorescent indicator of MMP tetramethylrhodamine ester (TMRE, 200 nM) or DMSO control for 30 min at 37° C. in CO2 incubator. Cells were washed with pre-warmed normal DMEM media, and test compounds were added with fresh media for the indicated times. Cells were then trypsinized, collected, centrifuged for 5 min at 800×g, and washed once in pre-warmed PBS-0.2% BSA. Cells were then resuspended in the same buffer prior to flow cytometric analysis. A total of 30,000 cells were counted per sample and data was analyzed by Cyan ADP flow cytometer with excitation/emission of 488 nm/572 nm (Beckman Coulter, Inc., Brea, Calif.). For measurements of membrane potential in isolated mouse liver mitochondria, the organelles were pre-incubated with 200 nM TMRE in MASSRO buffer (MAS buffer supplemented with 10 mM succinate, 1 μM rotenone, and 1 μM oligomycin) for 20 min at 25° C. The mitochondria were centrifuged for 5 min at 3000×g and resuspended in MASSRO buffer. Mitochondria were then added to MASSRO buffer containing the indicated concentrations of COH-SR4, FCCP or DMSO vehicle control and incubated at room temperature for 15 min. […] TMRE fluorescence was measured with a microplate reader (Tecan Infinite M200 Pro, Tecan Group Ltd., Switzerland) using an excitation emission of 545ex/580em. […]

[3] = tested on: isolated mouse liver mitochondria; assay: Mitochondrial swelling assay; details: potassium acetate buffer with valinomycin
Method: Mitochondrial swelling was measured in non-respiring mouse liver mitochondria incubated in buffered isotonic potassium acetate in the presence of valinomycin (24,25). […] Absorbance of the mitochondrial suspension before and after addition test compounds was measured every 10 seconds using a Varian Cary 300 spectrophotometer (Agilent Technologies, Santa Clara, Calif.). Swelling was recorded from the decrease in absorbance at 600 nm and expressed as percentage from initial reading after addition of mitochondria.
Mitochondrial membrane swelling was detected as decrease in absorbance at 600 nm following the addition of COH-SR4 or FCCP alone or in the presence of cysclosporin A (CSA, 1 μM) on isolated mouse liver mitochondria respiring on succinate (10 mM) in the presence of rotenone (1 μM) and valinomycin (5 μM) in potassium acetate buffer. […] Arrow indicates time of addition of test compounds into the mitochondria suspension.

A2058 p^0 cells = assay: Oxygen consumption rate in mitochondrial DNA-depleted cells; assay type: cell-based, human; details: compared with wild-type A2058; data not shown
Method: as §1, with “periods. Similar sets of experiments were performed in the presence of the mitochondria recoupler agent 6-KCH or the mitochondrial permeability transition (MPT) pore blocker CSA, where each compound was injected into the assay media prior to COH-SR4 or FCCP injection.” for “periods.”
To verify that COH-SR4 acts directly on mitochondrial respiration, OCR in mitochondrial DNA-depleted (p^0) A2058 cells was measured, as well as freshly isolated mouse liver mitochondria and treated with either COH-SR4 or FCCP.

[4] = tested on: HepG2 liver carcinoma cells; assay: Intracellular AMP:ATP ratio in HepG2; assay type: cell-based, human; details: 5 μM, 1 h
Method: ATP production from cells treated with test compounds were measured using the Luminescent ATP Detection Assay Kit. AMP, ATP and ADP were measured by UV-HPLC.
Total intracellular ATP production in cells treated with either 5 μM COH-SR4 or 5 μM FCCP was measured by bioluminescence assay and expressed as percentage of time-matched vehicle (DMSO) control (FIG. 84A). Intracellular AMP: ATP ratios increased in HepG2 liver carcinoma cells following 1 h treatment with either 5 μM COH-SR4 or 5 μM FCCP (FIG. 84B) and in liver of db/db mice treated with COH-SR4 (5 mg/kg B.W.) for 5 weeks (FIG. 84C). All data represented are mean±SEM, *P<0.05.

melanoma cells [5] = assay: MTT assay, melanoma cell lines of various mutational status; assay type: cell-based; details: 48 h, regardless of mutational status; read-out: IC50 values across melanoma cell lines
Method: Cell density measurements were performed using a hemocytometer to count reproductive cells resistant to staining with trypan blue. Approximately 20,000 cells were plated into each well of 96-well flat-bottomed micro-titer plates. After 12 h or 24 h incubation at 37° C., medium containing either COH-SR4 (ranging 0-200 μM) or elesclomol (ranging 0-20 μM) were added to the cells. After 24 h, 48 h or 96 h incubation, 20 μL of 5 mg/mL MTT were introduced to each well and incubated for 2 h. The plates were centrifuged and medium was decanted. Cells were subsequently dissolved in 100 μl DMSO with gentle shaking for 2 h at room temperature, followed by measurement of OD570 (91).

melanoma cells [6] = assay: Colony formation assay, melanoma cells (elesclomol); assay type: cell-based, human; details: 5 μM, compared to COH-SR4
Method: Cell survival was evaluated using a standard colony-forming assay. In total, 1×10^5 cells/mL were incubated with COH-SR4 (1.5 μM or 5 μM) or elesclomol (5 μM) for 24 h, and aliquots of 50 or 100 μL were added to 60 mm size petri dishes, containing 4 mL culture medium. After 7 or 10 days, adherent colonies were fixed, stained with 0.5% methylene blue for 30 min and colonies were counted using the Innotech Alpha Imager HP (91).

[7] = tested on: B16-F0 and A2058 melanoma cells; assay: TUNEL apoptosis assay, melanoma; assay type: cell-based; details: 5 μM, 24 h
Method: For TUNEL assay, 1×10^5 cells were grown on the cover slips for ˜12 h followed by treatment with COH-SR4 (5 μM or 10 μM) or elesclomol (5 μM) for 24 h. Apoptosis was determined by the labeling of DNA fragments with terminal deoxynucleotidyl-transferase dUTP nick-end labeling (TUNEL) assay using Promega fluorescence apoptosis detection system, and examined using Zeiss LSM 510 META laser scanning fluorescence microscope with filters 520 and 620 nm according to the protocol described previously (91). Photographs taken at identical exposure at ×400 magnification are presented.

GSTP = biological target: T1, GSTP (Homo sapiens, UniProt P09211); assay: GSTP activity towards CDNB in the presence of GSR4; assay type: biochemical; details: 93977 at 0 μM
T1 construct: made in house; host or cells: E. coli BL21 (DE3)
Method: Furthermore, GSTP activities towards CDNB were assessed in the presence of various concentration of GSR4. The GSTP activities decreased when the concentration of GSR4 increased (Table 3). Thus, […] was a product inhibitor of GSTP with an estimated Ki of less than 5 μM.

U251 = assay: Glioma ATP viability assay, U251; assay type: cell-based; details: Homo sapiens, U-251, 72 h, Table 2
Method: (§2) Cells of each cell line (U251, U87, PBT-017, PBT018, PBT003 and PBT028) were treated with various concentrations (0˜100 μM) of COH-SR4 for 72 hours. Cell viabilities were determined by ATP viability assays. Data were represented as a ratio to vehicle (DMSO) control, and plotted as mean±SEM (n=12) obtained from 2˜3 experiments (FIG. 34A).
as §2, with “(U87, U251,” for “(U251, U87, PBT-017, PBT018,”, “PVT-017)” for “PBT028)”, “2-3” for “2˜3”, “34B).” for “34A).”
(§3) Cells of each cell line were treated with various concentrations (0˜100 μM) of COH-SR4 or various concentrations (0˜1000 μM) of TMZ for 72 hours. Cell viabilities were determined by ATP viability assays. Data were represented as a ratio to untreated cells as control, and plotted as mean±SEM (n=12) obtained from 2˜3 experiments (FIGS. 43A-B).

PBT-017 = assay: Glioma ATP viability assay, PBT-017; assay type: cell-based; details: 72 h, Table 2
Method: as §2
as §2, with “(U87, U251,” for “(U251, U87, PBT-017, PBT018,”, “PVT-017)” for “PBT028)”, “2-3” for “2˜3”, “34B).” for “34A).”
as §3

T1 sequence (P09211 whole entry): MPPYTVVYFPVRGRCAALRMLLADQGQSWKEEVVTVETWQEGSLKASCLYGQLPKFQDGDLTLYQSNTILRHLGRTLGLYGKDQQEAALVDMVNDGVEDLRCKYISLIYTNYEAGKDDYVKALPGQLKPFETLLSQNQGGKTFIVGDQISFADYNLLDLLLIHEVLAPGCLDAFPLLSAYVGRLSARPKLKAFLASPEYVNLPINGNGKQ

Molecule: N#CC(C#N)=NNc1ccc(OC(F)(F)F)cc1 [FCCP, reference compound]
oxygen consumption rate (OCR) [1]: caused an abrupt increase in OCR at the lower concentration and decreases OCR at higher (>3 μM) concentrations
OCR of mitochondria respiring on pyruvate and malate or succinate-rotenone [2]: dose-dependently increased OCR of mitochondria
mitochondrial membrane depolarization (TMRE fluorescence) (A2058 cells): induced mitochondrial membrane depolarization in a time-dependent manner
mitochondrial swelling (absorbance at 600 nm) [3]: mitochondrial swelling was observed
OCR in mitochondrial DNA-depleted cells (A2058 p^0 cells): failed to increase OCR
intracellular AMP:ATP ratios [4]: increased

IC50 (melanoma cells [5]): ≥ 5.8 µM
Molecule: CN(NC(=O)CC(=O)NN(C)C(=S)c1ccccc1)C(=S)c1ccccc1 [elesclomol, reference compound]
colony forming ability of melanoma cells (melanoma cells [6]): did not significantly affect the colony forming ability
apoptosis (DNA fragmentation, TUNEL) [7]: not potent

Molecule: mono-glutationyl-SR4 [GSR4]
GSTP activity towards CDNB (Kcat [s−1]) (GSTP; [GSR4] 5 μM): 36385 s⁻¹
GSTP activity towards CDNB (Kcat [s−1]) (GSTP; [GSR4] 10 μM): 16115 s⁻¹

IC50 (U251): 371 µM
IC50 (PBT-017): 13 µM
Molecule: Cn1nnc2c(C(N)=O)ncn2c1=O [TMZ, temozolomide, reference compound]
